{"source": "patent US20230181696A1", "about": "“POLYPEPTIDE DRUG FOR PREVENTING AND/OR TREATING NEUROBLASTOMA AND USE THEREOF” (ZHUHAI TENGBAI PHARMACEUTICAL CO., LTD., priority 2020, published 2023)", "assay": "Body weight and normal-side kidney weight of tumor-bearing nude mice (toxic side effects)", "conditions": "for Body weight of tumor-bearing nude mice: mean ± SEM; for Body weight, End / Relative body weight, End / Kidney weight on normal side / Body weight, Start / Relative body weight, Start: mean±SEM; for Renal weight/body mass index on normal side / Kidney weight on normal side: left kidney, end of experiment", "note": "Peptide text beside a SMILES is read from it.", "description": "Three days after the surgical modeling, the tumor-bearing mice were imaged with IVIS Spectrum CT in vivo, and the tumor-bearing mice were randomized over groups of 10 mice according to the luminescence intensity in the software analysis results.\nAnimals were observed daily and weighed every other day. Luminescence was detected with four times of in vivo imaging at day 1 (i.e., 3 days after surgical modeling), day 6, day 12 and day 15 from the experimental grouping. The time of in vivo imaging for luminescence detection was adjusted according to the survival and physical condition of the animals. At the end of the experiment (day 16) the animals were executed by neck dislocation, the kidney tissue and tumor masses was isolated for weighing and photographing, and the tumor masses were preserved in 4% formaldehyde solution for routine pathological testing.\nThe statistical analysis between groups was one-way ANOVA and Tukey’s test for pairwise comparison, and the statistical analysis between groups at different time points was two-way ANOVA and Bonferroni test for pairwise comparison.", "data": [{"smiles": "CSCC[C@H](NC(=O)CNC(=O)CNC(=O)[C@H](CO)NC(=O)[C@H](CC(C)C)NC(=O)[C@@H]1CCCN1C(=O)[C@H](CO)NC(=O)[C@H](CC(N)=O)NC(=O)[C@H](CC(C)C)NC(=O)[C@H](C)NC(=O)[C@@H](NC(=O)[C@H](CC(C)C)NC(=O)[C@H](Cc1c[nH]cn1)NC(=O)[C@H](CC(C)C)NC(=O)[C@@H](NC(=O)[C@@H]1CCCN1C(=O)[C@H](CCC(N)=O)NC(=O)[C@H](Cc1ccccc1)NC(=O)[C@H](CC(=O)O)NC(=O)[C@H](CCCNC(=N)N)NC(=O)[C@H](Cc1c[nH]cn1)NC(=O)[C@H](CO)NC(=O)[C@H](Cc1c[nH]cn1)NC(=O)[C@H](CCSC)NC(=O)[C@H](CC(=O)O)NC(=O)CNC(=O)[C@H](CCCNC(=N)N)NC(=O)[C@H](CC(=O)O)NC(=O)CNC(=O)[C@@H](N)CCCNC(=N)N)C(C)C)C(C)C)C(=O)O", "note": "[HYD-PEP06] (H-RGDRGDMHSHRDFQPVLHLVALNSPLSGGM-OH)", "values": [{"measurement": "Body weight of tumor-bearing nude mice", "setting": "5 mg/kg i.v. once a day, Day 1", "value": "20.8 ± 0.6", "unit": "g"}, {"measurement": "Body weight of tumor-bearing nude mice", "setting": "5 mg/kg i.v. once a day, Day 4", "value": "21.8 ± 0.6", "unit": "g"}, {"measurement": "Body weight of tumor-bearing nude mice", "setting": "5 mg/kg i.v. once a day, Day 7", "value": "21.2 ± 0.6", "unit": "g"}, {"measurement": "Body weight of tumor-bearing nude mice", "setting": "5 mg/kg i.v. once a day, Day 10", "value": "20.9 ± 0.5", "unit": "g"}, {"measurement": "Body weight of tumor-bearing nude mice", "setting": "5 mg/kg i.v. once a day, Day 13", "value": "21.1 ± 0.4", "unit": "g"}, {"measurement": "Body weight of tumor-bearing nude mice", "setting": "5 mg/kg i.v. once a day, Day 16", "value": "21.0 ± 0.4", "unit": "g"}, {"measurement": "Body weight, End", "setting": "5 mg/kg i.v. x15", "value": "21.0 ± 0.4", "unit": "g"}, {"measurement": "Relative body weight, End", "setting": "5 mg/kg i.v. x15", "value": "101.6 ± 1.9", "unit": "%"}, {"measurement": "Renal weight/body mass index on normal side", "setting": "5 mg/kg i.v. x15", "value": "0.85+0.01%"}, {"measurement": "Kidney weight on normal side", "setting": "5 mg/kg i.v. x15", "value": "0.178 ± 0.003", "unit": "g"}, {"measurement": "Body weight, Start", "setting": "5 mg/kg i.v. x15", "value": "20.8 ± 0.6", "unit": "g"}, {"measurement": "Relative body weight, Start", "setting": "5 mg/kg i.v. x15", "value": "100.0±0.0", "unit": "%"}, {"measurement": "Body weight of tumor-bearing nude mice", "setting": "10 mg/kg i.v. once a day, Day 1", "value": "20.2 ± 0.4", "unit": "g"}, {"measurement": "Body weight of tumor-bearing nude mice", "setting": "10 mg/kg i.v. once a day, Day 4", "value": "21.9 ± 0.3", "unit": "g"}, {"measurement": "Body weight of tumor-bearing nude mice", "setting": "10 mg/kg i.v. once a day, Day 7", "value": "21.1 ± 0.3", "unit": "g"}, {"measurement": "Body weight of tumor-bearing nude mice", "setting": "10 mg/kg i.v. once a day, Day 10", "value": "21.2 ± 0.3", "unit": "g"}, {"measurement": "Body weight of tumor-bearing nude mice", "setting": "10 mg/kg i.v. once a day, Day 13", "value": "21.3 ± 0.2", "unit": "g"}, {"measurement": "Body weight of tumor-bearing nude mice", "setting": "10 mg/kg i.v. once a day, Day 16", "value": "21.0 ± 0.4", "unit": "g"}, {"measurement": "Body weight, End", "setting": "10 mg/kg i.v. x15", "value": "21.0 ± 0.4", "unit": "g"}, {"measurement": "Relative body weight, End", "setting": "10 mg/kg i.v. x15", "value": "104.0±2.2", "unit": "%"}, {"measurement": "Renal weight/body mass index on normal side", "setting": "10 mg/kg i.v. x15", "value": "0.85±0.02", "unit": "%"}, {"measurement": "Kidney weight on normal side", "setting": "10 mg/kg i.v. x15", "value": "0.178 ± 0.006", "unit": "g"}, {"measurement": "Body weight, Start", "setting": "10 mg/kg i.v. x15", "value": "20.2 ± 0.4", "unit": "g"}, {"measurement": "Relative body weight, Start", "setting": "10 mg/kg i.v. x15", "value": "100.0±0.0", "unit": "%"}, {"measurement": "Body weight of tumor-bearing nude mice", "setting": "20 mg/kg i.v. once a day, Day 1", "value": "20.3 ± 0.4", "unit": "g"}, {"measurement": "Body weight of tumor-bearing nude mice", "setting": "20 mg/kg i.v. once a day, Day 4", "value": "21.6 ± 0.4", "unit": "g"}, {"measurement": "Body weight of tumor-bearing nude mice", "setting": "20 mg/kg i.v. once a day, Day 7", "value": "20.9 ± 0.5", "unit": "g"}, {"measurement": "Body weight of tumor-bearing nude mice", "setting": "20 mg/kg i.v. once a day, Day 10", "value": "20.9 ± 0.5", "unit": "g"}, {"measurement": "Body weight of tumor-bearing nude mice", "setting": "20 mg/kg i.v. once a day, Day 13", "value": "21.3 ± 0.6", "unit": "g"}, {"measurement": "Body weight of tumor-bearing nude mice", "setting": "20 mg/kg i.v. once a day, Day 16", "value": "21.3 ± 0.6", "unit": "g"}, {"measurement": "Body weight, End", "setting": "20 mg/kg i.v. x15", "value": "21.3 ± 0.6", "unit": "g"}, {"measurement": "Relative body weight, End", "setting": "20 mg/kg i.v. x15", "value": "104.9±3.3", "unit": "%"}, {"measurement": "Renal weight/body mass index on normal side", "setting": "20 mg/kg i.v. x15", "value": "0.86+0.01%"}, {"measurement": "Kidney weight on normal side", "setting": "20 mg/kg i.v. x15", "value": "0.182 ± 0.005", "unit": "g"}, {"measurement": "Body weight, Start", "setting": "20 mg/kg i.v. x15", "value": "20.3 ± 0.4", "unit": "g"}, {"measurement": "Relative body weight, Start", "setting": "20 mg/kg i.v. x15", "value": "100.0±0.0", "unit": "%"}, {"measurement": "Kidney weight, kidney weight/body mass index in the normal side (left side) and body weight vs model control group", "setting": "5, 10, 20 mg/kg i.v. x15", "value": "No significant differences"}, {"measurement": "Toxic side effects", "setting": "at the effective dose (5-20 mg/kg i.v. x15)", "value": "did not show significant toxic side effects"}]}]}
